Experimental data taken from ChEMBL document CHEMBL4665642, “Anticancer profile of newly synthesized BRAF inhibitors possess 5-(pyrimidin-4-yl)imidazo[2,1-b]thiazole scaffold” (Bioorg Med Chem, 2019).

Tests used:
Type in all cases: functional
Details in all cases: read-out: Activity
MDA-MB-231 = assay: Cytotoxicity against human MDA-MB-231 cells assessed as cell viability at 10 uM incubated for 48 hrs by sulforhodamine B assay relative to control
SK-MEL-2 = assay: Cytotoxicity against human SK-MEL-2 cells assessed as cell viability at 10 uM incubated for 48 hrs by sulforhodamine B assay relative to control
UO-31 = assay: Cytotoxicity against human UO-31 cells assessed as cell viability at 10 uM incubated for 48 hrs by sulforhodamine B assay relative to control
Hs-578T = assay: Cytotoxicity against human HS-578T cells assessed as cell viability at 10 uM incubated for 48 hrs by sulforhodamine B assay relative to control
NCI-H226 = assay: Cytotoxicity against human NCI-H226 cells assessed as cell viability at 10 uM incubated for 48 hrs by sulforhodamine B assay relative to control
UACC-257 = assay: Cytotoxicity against human UACC-257 cells assessed as cell viability at 10 uM incubated for 48 hrs by sulforhodamine B assay relative to control
NCI-H322M = assay: Cytotoxicity against human NCI-H322M cells assessed as cell viability at 10 uM incubated for 48 hrs by sulforhodamine B assay relative to control
OVCAR-8 = assay: Cytotoxicity against human OVCAR-8 cells assessed as cell viability at 10 uM incubated for 48 hrs by sulforhodamine B assay relative to control
LOX IMVI = assay: Cytotoxicity against human LOX IMVI cells assessed as cell viability at 10 uM incubated for 48 hrs by sulforhodamine B assay relative to control
RXF 393 = assay: Cytotoxicity against human RXF 393 cells assessed as cell viability at 10 uM incubated for 48 hrs by sulforhodamine B assay relative to control
HCT-15 = assay: Cytotoxicity against human HCT-15 cells assessed as cell viability at 10 uM incubated for 48 hrs by sulforhodamine B assay relative to control
RPMI-8226 = assay: Cytotoxicity against human RPMI-8226 cells assessed as cell viability at 10 uM incubated for 48 hrs by sulforhodamine B assay relative to control
SF-268 = assay: Cytotoxicity against human SF-268 cells assessed as cell viability at 10 uM incubated for 48 hrs by sulforhodamine B assay relative to control
SW-620 = assay: Cytotoxicity against human SW-620 cells assessed as cell viability at 10 uM incubated for 48 hrs by sulforhodamine B assay relative to control
M14 = assay: Cytotoxicity against human M14 cells assessed as cell viability at 10 uM incubated for 48 hrs by sulforhodamine B assay relative to control
CAKI-1 = assay: Cytotoxicity against human CAKI-1 cells assessed as cell viability at 10 uM incubated for 48 hrs by sulforhodamine B assay relative to control
HCT-116 = assay: Cytotoxicity against human HCT-116 cells assessed as cell viability at 10 uM incubated for 48 hrs by sulforhodamine B assay relative to control
MDA-MB-435 = assay: Cytotoxicity against human MDA-MB-435 cells assessed as cell viability at 10 uM incubated for 48 hrs by sulforhodamine B assay relative to control
EKVX = assay: Cytotoxicity against human EKVX cells assessed as cell viability at 10 uM incubated for 48 hrs by sulforhodamine B assay relative to control
SK-MEL-5 = assay: Cytotoxicity against human SK-MEL-5 cells assessed as cell viability at 10 uM incubated for 48 hrs by sulforhodamine B assay relative to control
HOP-62 = assay: Cytotoxicity against human HOP-62 cells assessed as cell viability at 10 uM incubated for 48 hrs by sulforhodamine B assay relative to control
HCC 2998 = assay: Cytotoxicity against human HCC 2998 cells assessed as cell viability at 10 uM incubated for 48 hrs by sulforhodamine B assay relative to control
SF-295 = assay: Cytotoxicity against human SF-295 cells assessed as cell viability at 10 uM incubated for 48 hrs by sulforhodamine B assay relative to control
OVCAR-5 = assay: Cytotoxicity against human OVCAR-5 cells assessed as cell viability at 10 uM incubated for 48 hrs by sulforhodamine B assay relative to control
A549 = assay: Cytotoxicity against human A549 cells assessed as cell viability at 10 uM incubated for 48 hrs by sulforhodamine B assay relative to control
SF-539 = assay: Cytotoxicity against human SF-539 cells assessed as cell viability at 10 uM incubated for 48 hrs by sulforhodamine B assay relative to control
NCI/ADR-RES = assay: Cytotoxicity against human NCI/ADR-RES cells assessed as cell viability at 10 uM incubated for 48 hrs by sulforhodamine B assay relative to control
U-251 = assay: Cytotoxicity against human U-251 cells assessed as cell viability at 10 uM incubated for 48 hrs by sulforhodamine B assay relative to control
SNB-75 = assay: Cytotoxicity against human SNB-75 cells assessed as cell viability at 10 uM incubated for 48 hrs by sulforhodamine B assay relative to control
IGROV-1 = assay: Cytotoxicity against human IGROV-1 cells assessed as cell viability at 10 uM incubated for 48 hrs by sulforhodamine B assay relative to control
DU-145 = assay: Cytotoxicity against human DU-145 cells assessed as cell viability at 10 uM incubated for 48 hrs by sulforhodamine B assay relative to control
HOP-92 = assay: Cytotoxicity against human HOP-92 cells assessed as cell viability at 10 uM incubated for 48 hrs by sulforhodamine B assay relative to control
BT-549 = assay: Cytotoxicity against human BT-549 cells assessed as cell viability at 10 uM incubated for 48 hrs by sulforhodamine B assay relative to control
PC-3 = assay: Cytotoxicity against human PC-3 cells assessed as cell viability at 10 uM incubated for 48 hrs by sulforhodamine B assay relative to control
SNB-19 = assay: Cytotoxicity against human SNB-19 cells assessed as cell viability at 10 uM incubated for 48 hrs by sulforhodamine B assay relative to control
NCI-H23 = assay: Cytotoxicity against human NCI-H23 cells assessed as cell viability at 10 uM incubated for 48 hrs by sulforhodamine B assay relative to control
MCF7 = assay: Cytotoxicity against human MCF7 cells assessed as cell viability at 10 uM incubated for 48 hrs by sulforhodamine B assay relative to control
NCI-H522 = assay: Cytotoxicity against human NCI-H522 cells assessed as cell viability at 10 uM incubated for 48 hrs by sulforhodamine B assay relative to control
TK-10 = assay: Cytotoxicity against human TK-10 cells assessed as cell viability at 10 uM incubated for 48 hrs by sulforhodamine B assay relative to control
SR = assay: Cytotoxicity against human SR cells assessed as cell viability at 10 uM incubated for 48 hrs by sulforhodamine B assay relative to control
Malme-3M = assay: Cytotoxicity against human Malme-3M cells assessed as cell viability at 10 uM incubated for 48 hrs by sulforhodamine B assay relative to control

Cc1ccc(S(=O)(=O)NCCCNc2nccc(-c3c(-c4cccc(F)c4)nc4sccn34)n2)cc1
viability at 10 µM (MDA-MB-231): 84.5%
viability at 10 µM (SK-MEL-2): 86.1%
viability at 10 µM (UO-31): 33.8%
viability at 10 µM (Hs-578T): 84.3%
viability at 10 µM (NCI-H226): 53.7%
viability at 10 µM (UACC-257): 121%
viability at 10 µM (NCI-H322M): 89.6%
viability at 10 µM (OVCAR-8): 60.3%
viability at 10 µM (LOX IMVI): 38%
viability at 10 µM (RXF 393): 80.3%
viability at 10 µM (HCT-15): 47.1%
viability at 10 µM (RPMI-8226): 68.2%
viability at 10 µM (SF-268): 65.9%
viability at 10 µM (SW-620): 79.4%
viability at 10 µM (M14): 80.7%
viability at 10 µM (CAKI-1): 46.9%
viability at 10 µM (HCT-116): 49.6%
viability at 10 µM (MDA-MB-435): 48.8%
viability at 10 µM (EKVX): 78.1%
viability at 10 µM (SK-MEL-5): 57.3%
viability at 10 µM (HOP-62): 101%
viability at 10 µM (HCC 2998): 98.2%
viability at 10 µM (SF-295): 84.1%
viability at 10 µM (OVCAR-5): 111%
viability at 10 µM (A549): 73%
viability at 10 µM (SF-539): 95.3%
viability at 10 µM (NCI/ADR-RES): 79.7%
viability at 10 µM (U-251): 82.2%
viability at 10 µM (SNB-75): 98.7%
viability at 10 µM (IGROV-1): 37.8%
viability at 10 µM (DU-145): 77%
viability at 10 µM (HOP-92): 112%
viability at 10 µM (BT-549): 84.5%
viability at 10 µM (PC-3): 67.7%
viability at 10 µM (SNB-19): 92.2%
viability at 10 µM (NCI-H23): 96.2%
viability at 10 µM (MCF7): 69.4%
viability at 10 µM (NCI-H522): 70.8%
viability at 10 µM (TK-10): 99.4%
viability at 10 µM (SR): 102%
viability at 10 µM (Malme-3M): 116%

O=S(=O)(NCCCNc1nccc(-c2c(-c3cccc(F)c3)nc3sccn23)n1)c1ccc(Br)cc1
viability at 10 µM (MDA-MB-231): 76.4%
viability at 10 µM (SK-MEL-2): 61.4%
viability at 10 µM (UO-31): 31.6%
viability at 10 µM (Hs-578T): 71.7%
viability at 10 µM (NCI-H226): 32.7%
viability at 10 µM (UACC-257): 62.4%
viability at 10 µM (NCI-H322M): 81%
viability at 10 µM (OVCAR-8): 28%
viability at 10 µM (LOX IMVI): 40.2%
viability at 10 µM (RXF 393): 81.8%
viability at 10 µM (HCT-15): 26.4%
viability at 10 µM (RPMI-8226): 39.4%
viability at 10 µM (SF-268): 60.6%
viability at 10 µM (SW-620): 77.6%
viability at 10 µM (M14): 48.1%
viability at 10 µM (CAKI-1): 50.3%
viability at 10 µM (HCT-116): 46.2%
viability at 10 µM (MDA-MB-435): 31.6%
viability at 10 µM (EKVX): 57.4%
viability at 10 µM (SK-MEL-5): 21.2%
viability at 10 µM (HOP-62): 94.4%
viability at 10 µM (HCC 2998): 96.9%
viability at 10 µM (SF-295): 64.2%
viability at 10 µM (OVCAR-5): 110%
viability at 10 µM (A549): 55.1%
viability at 10 µM (SF-539): 98%
viability at 10 µM (NCI/ADR-RES): 34.4%
viability at 10 µM (U-251): 76.7%
viability at 10 µM (SNB-75): 88.6%
viability at 10 µM (IGROV-1): 24.4%
viability at 10 µM (DU-145): 61.9%
viability at 10 µM (HOP-92): 73.7%
viability at 10 µM (BT-549): 64%
viability at 10 µM (PC-3): 40.8%
viability at 10 µM (SNB-19): 84.5%
viability at 10 µM (NCI-H23): 57.4%
viability at 10 µM (MCF7): 41.9%
viability at 10 µM (NCI-H522): 37.9%
viability at 10 µM (TK-10): 74.8%
viability at 10 µM (SR): 78.1%
viability at 10 µM (Malme-3M): 69.4%
